Where “and” joins values, the source holds several entries; their conditions need not be identical. Identical values can stand only once.
Columns and labels:
cattle = conditions: added to organic roughage fed to cattle; cited from earlier work
[1] = test system: mixed culture from municipal sludge digester; experiment: Total Volatile Solids (TVS) of batch anaerobic digester reactors
Description: After the above TS measurements were completed, the pans together with dried samples are put into furnace at 550° C. for about two hours. The weight of the pans are then noted (say W3). The difference […] then gives the weight of volatile solids in the 30 ml sample. Again this Total Volatile Solids concentration is manipulated to units of g/liter. TVS determination represents the concentration of the organic substrate in the test sample.
(§1) Municipal sludge from the city of Lubbock, Wastewater Treatment Plant was digested in 12 batch digesters. Using twelve batch reactors allowed the collection of control reactors data (i.e., no formate in the reactors) in triplicate, titration studies of increasing formate concentration, and duplicates/triplicates of varying formate concentration. Experiments were conducted in the laboratories of Texas Tech University.
The reactors were setup on Mar. […] The substrate taken was 2 parts of 50 g/liter sucrose solution mixed with 1 part of digested municipal sludge which acts as the seed material for incorporation of microbes into the reactors. The experiments were started with the following protocol. [drawing 1]

[2] = test system: anaerobic mixed culture (domestic sewage); experiment: Anaerobic digestion of domestic sewage, overall effect of formate salt concentration
Description: The various formate salts include, but are not limited to sodium formate (NaHCOO), potassium formate (KHCOO), ammonium formate (NH4COO), calcium formate (Ca(HCOO)2), and others either singly or in combination. These formate salts have been tested for concentrations ranging from 10 mg/L (˜10 ppm) to as high as […] (100,000 mg/L) based on the organic matter available for digestion.
Two tests were run in which sodium formate in concentrations ranging from a few parts per million (ppm) up to ten percent (10%) on a mass basis were added to samples taken from a publicly owned anaerobic digester. The samples were first cultured in laboratory sized batch reactors. The twelve batch reactors were then sampled, and studied for periods of up to fifty-five days. The process variables that were monitored included COD (Chemical Oxygen Demand), TS (Total Solids), TVS (Total Volatile Solids) and the pH of the culture. Time and the initial sodium formate concentration level were the independent variables. Finally measurements were also made of the bacterial counts at the beginning and at the end of the fifty five day period.
as §1

In the case of O=C[O-].[Na+] [sodium formate], the “increase of digestibility of the feed” value (cattle) is listed as 4-27%, the “Total Volatile Solids” value ([1]; 1000 ppm, day 2) is listed as 33.4 g/L and 32.6 g/L and 26.7 g/L and the “Total Volatile Solids” value ([1]; 1000 ppm, day 7) is listed as 30.6 g/L and 29.9 g/L and 29.3 g/L. For the same compound, the “Total Volatile Solids” value ([1]; 1000 ppm, day 16) was 16.4 g/L and 13.1 g/L and 18.1 g/L, the “Total Volatile Solids” value ([1]; 1000 ppm, day 24) was 14.4 g/L and 10.3 g/L and 15.2 g/L and the “Total Volatile Solids” value ([1]; 1000 ppm, day 55) was 12.9 g/L and 10.7 g/L and 14.2 g/L. The “Total Volatile Solids” value ([1]; 1000 ppm, with formate addition at t = 0) was 39.6 g/L and 38.8 g/L and 37.3 g/L, the “Total Volatile Solids” value ([1]; 5000 ppm, day 2) was 23.7 g/L and the “Total Volatile Solids” value ([1]; 5000 ppm, day 7) was 20.3 g/L. For the same compound, the “Total Volatile Solids” value ([1]; 5000 ppm, day 16) was 12.6 g/L, the “Total Volatile Solids” value ([1]; 5000 ppm, day 24) was 11.7 g/L and the “Total Volatile Solids” value ([1]; 5000 ppm, day 55) was 14.7 g/L. The “Total Volatile Solids” value ([1]; 5000 ppm, with formate addition at t = 0) was 41.8 g/L, the “Total Volatile Solids” value ([1]; 10000 ppm, day 2) was 25.5 g/L and 30.2 g/L and 29.8 g/L and the “Total Volatile Solids” value ([1]; 10000 ppm, day 7) was 19.2 g/L and 24 g/L and 24.1 g/L. The “Total Volatile Solids” value ([1]; 10000 ppm, day 16) was 17.1 g/L and 21.0 g/L and 15.0 g/L, the “Total Volatile Solids” value ([1]; 10000 ppm, day 24) was 16.4 g/L and 18.9 g/L and 15.2 g/L and the “Total Volatile Solids” value ([1]; 10000 ppm, day 55) was 19.8 g/L and 20.1 g/L and 18.5 g/L. The “Total Volatile Solids” value ([1]; 10000 ppm, with formate addition at t = 0) was 38.8 g/L and 46.9 g/L and 46.4 g/L, the “Total Volatile Solids” value ([1]; 100000 ppm, day 2) was 68.5 g/L and 80.8 g/L and the “Total Volatile Solids” value ([1]; 100000 ppm, day 7) was 45.8 g/L and 52.7 g/L. The “Total Volatile Solids” value ([1]; 100000 ppm, day 16) was 44.7 g/L and 54.10 g/L, the “Total Volatile Solids” value ([1]; 100000 ppm, day 24) was 41.4 g/L and 51.6 g/L and the “Total Volatile Solids” value ([1]; 100000 ppm, day 55) was 45.5 g/L and 65.8 g/L. The “Total Volatile Solids” value ([1]; 100000 ppm, with formate addition at t = 0) was 126.6 g/L and 134.9 g/L, the “effect on anaerobic digestion over the tested concentration range” value ([2]; 10 mg/L to 100,000 mg/L based on the organic matter available for digestion) was “beneficial at all concentration levels” and the “concentration range of greatest effects” value ([2]; 10 mg/L to 100,000 mg/L tested) was “greatest effects being observed over the 100 ppm to the 2,000-mg/L range”. The “cellular activity in the mixed culture” value ([2]; above the 5000 ppm concentration level) was “slightly, but still progressively more inhibited”, the “effect of accidental addition of too much (titration data)” value ([2]; overdose) was “would not shut down the digester culture” and the “effect on anaerobic digestion process” value ([2]; up to 5000 ppm, batch reactors, up to 55 days) was “facilitate the anaerobic digestion process at all concentration levels up to 5000 ppm”.
